From patent US9480259B2, “Pyrazolopyrans having herbicidal and pharmaceutical properties” (BASF SE, priority 2012, dated 2016)

Experiments:
[1] = tested on: SETFA, AMARE, POLCO, CHEAL, GALAP; assay: Greenhouse herbicidal test, post-emergence, weed panel; assay type: in vivo; conditions: application rate 1 kg/ha, scale 0 to 100
Description: (§1) The seeds of the test plants were sown separately for each species. For the post-emergence treatment, the test plants were first grown to a height of 2 to 5 cm, depending on the plant habit, and only then treated with the active ingredients which had been suspended or emulsified in water. For this purpose, the test plants were either sown directly and grown in the same containers, or they were first grown separately as seedlings and transplanted into the test containers a few days prior to treatment. Depending on the species, the plants were kept at 10-25° C. or 20-35° C. The test period extended over 8 to 9 days. During this time, the plants were tended, and their response to the individual treatments was evaluated. Evaluation was carried out using a scale from 0 to 100. 100 means no emergence of the plants, or complete destruction of at least the aerial moieties, and 0 means no damage, or normal course of growth. A good herbicidal activity is given at values of at least 70 and a very good herbicidal activity is given at values of at least 85. The plants used in the greenhouse experiments belonged to the following species: [table]

[2] = tested on: AMARE (Amaranthus retroflexus); assay: Greenhouse herbicidal test, post-emergence, AMARE; assay type: in vivo; conditions: application rate 1 kg/ha; for herbicidal activity against AMARE: scale 0 to 100; for pest or weed control at 1000 g/ha: Amaranthus retroflexus, scale 0 to 100, read-out: herbicidal activity against AMARE
Description: as §1

[3] = tested on: CHEAL (Chenopodium album); assay: Greenhouse herbicidal test, post-emergence, CHEAL; assay type: in vivo; conditions: application rate 1 kg/ha; for herbicidal activity against CHEAL: scale 0 to 100; for pest or weed control at 1000 g/ha: Chenopodium album, scale 0 to 100, read-out: herbicidal activity against CHEAL
Description: as §1

[4] = tested on: POLCO (Poligonum convolvulus); assay: Greenhouse herbicidal test, post-emergence, POLCO; assay type: in vivo; conditions: application rate 1 kg/ha; for herbicidal activity against POLCO: scale 0 to 100; for pest or weed control at 1000 g/ha: Poligonum convolvulus, scale 0 to 100, read-out: herbicidal activity against POLCO
Description: as §1

[5] = molecular target: Arabidopsis thaliana SHMT; assay: SHMT activity assay (ED50 SHMT), coupled with N5,N10-CH2-THF dehydrogenase, NADH at 340 nm; assay type: biochemical
Procedure, shortened: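 His-tagged SHMT purified on Ni-NTA. NADH formation followed at 340 nm for 30 min; ED50 from inhibition of initial velocity.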

SETFA (Setaria faberi) = assay: Greenhouse herbicidal test, post-emergence, SETFA; assay type: in vivo; conditions: application rate 1 kg/ha, scale 0 to 100, read-out: herbicidal activity against SETFA
Description: as §1

[6] = Table 2, Arabidopsis thaliana SHMT enzyme assay, values given as upper bounds
[7] = Table 2, values given as upper bounds
[8] = Arabidopsis thaliana SHMT enzyme assay, values given as upper bounds
[9] = inhibition of initial velocity of Arabidopsis thaliana SHMT

SMILES	herbicidal activity against at least three of the weeds SETFA, AMARE, POLCO, CHEAL, GALAP [1]	pest or weed control at 1000 g/ha [2]	pest or weed control at 1000 g/ha [3]	also measured
Cc1n[nH]c2c1C(c1cc(Cl)cc(Cl)c1)(C(C)C)C(C#N)=C(N)O2 (racemic) [Compound 2.112]	good or very good	–	–	–
Cc1n[nH]c2c1C(c1cc(-c3nnnn3C)cc(C(F)(F)F)c1)(C1CCC1)C(C#N)=C(N)O2 (racemic) [Compound 2.399]	good or very good	–	–	herbicidal activity against AMARE [2]: very good (a very good herbicidal activity is given at values of at least 85); herbicidal activity against CHEAL [3]: very good (a very good herbicidal activity is given at values of at least 85); herbicidal activity against POLCO [4]: good (A good herbicidal activity is given at values of at least 70)
Cc1n[nH]c2c1C(c1cc(Cl)cc(C#N)c1)(C1(F)CC1)C(C#N)=C(N)O2 (racemic) [Compound 2.400]	good or very good	–	–	–
Cc1n[nH]c2c1C(c1cc(C#N)cc(C(F)(F)F)c1)(C1(F)CC1)C(C#N)=C(N)O2 (racemic) [Compound 2.404]	good or very good	–	–	–
Cc1n[nH]c2c1C(c1cc(C(N)=S)cc(C(F)(F)F)c1)(C1CCC1)C(C#N)=C(N)O2 (racemic) [Compound 2.409]	good or very good	–	–	herbicidal activity against AMARE [2]: good (A good herbicidal activity is given at values of at least 70); herbicidal activity against CHEAL [3]: very good (a very good herbicidal activity is given at values of at least 85); herbicidal activity against POLCO [4]: very good (a very good herbicidal activity is given at values of at least 85)
CC(=O)N(C)c1cc(C#N)cc(C2(C3CCC3)C(C#N)=C(N)Oc3[nH]nc(C)c32)c1 (racemic) [Compound 2.414]	good or very good	–	–	–
Cc1n[nH]c2c1C(c1cc(C#N)cc(OC(F)(F)F)c1)(C1CCC1)C(C#N)=C(N)O2 (racemic) [Compound 2.417]	good or very good	–	–	–
CC(=O)N(C)c1cc(C(F)(F)F)cc(C2(C3(F)CC3)C(C#N)=C(N)Oc3[nH]nc(C)c32)c1 (racemic) [Compound 2.439]	good or very good	–	–	–
Cc1n[nH]c2c1C(c1cc(C(F)(F)F)cc(C(F)(F)F)c1)(C1(F)CC1)C(C#N)=C(N)O2 (stereo not drawn) [Compound 2.247]	good or very good	≥ 85%	≥ 85%	EC50 [5, 6]: < 10 nM; pest or weed control at 1000 g/ha [4]: ≥ 85%
Cc1n[nH]c2c1C(c1cc(Cl)cc(C#N)c1)(C1CCC1)C(C#N)=C(N)O2 (stereo not drawn) [Compound 2.280]	good or very good	≥ 85%	≥ 85%	EC50 [5, 6]: < 10 nM; pest or weed control at 1000 g/ha [4]: ≥ 85%
Cc1n[nH]c2c1C(c1cc(Br)cc(C#N)c1)(C1CCC1)C(C#N)=C(N)O2 (stereo not drawn) [Compound 2.281]	good or very good	≥ 85%	≥ 85%	EC50 [5, 6]: < 10 nM; pest or weed control at 1000 g/ha [4]: ≥ 85%
Cc1n[nH]c2c1C(c1cc(C#N)cc(C(F)(F)F)c1)(C1CCC1)C(C#N)=C(N)O2 (stereo not drawn) [Compound 2.282]	good or very good	≥ 85%	≥ 85%	EC50 [5, 6]: < 10 nM; pest or weed control at 1000 g/ha [4]: ≥ 85%
Cc1n[nH]c2c1C(c1cc(C#N)cc(C#N)c1)(C1CCC1)C(C#N)=C(N)O2 (stereo not drawn) [Compound 2.283]	good or very good	≥ 85%	≥ 85%	EC50 [5, 6]: < 100 nM; pest or weed control at 1000 g/ha [4]: ≥ 85%
Cc1n[nH]c2c1C(c1cc(C#N)cc(C#N)c1)(C(C)C)C(C#N)=C(N)O2 (stereo not drawn) [Compound 2.335]	good or very good	≥ 85%	≥ 85%	EC50 [5, 6]: < 10 nM; pest or weed control at 1000 g/ha [4]: ≥ 85%
Cc1n[nH]c2c1C(c1cc(C#N)cc(C(F)(F)F)c1)(C1CC1)C(C#N)=C(N)O2 (stereo not drawn) [Compound 2.362]	good or very good	≥ 85%	≥ 85%	EC50 [5, 6]: < 10 nM; pest or weed control at 1000 g/ha [4]: ≥ 85%
Cc1n[nH]c2c1C(c1cc(OCC#N)cc(C(F)(F)F)c1)(C1CCC1)C(C#N)=C(N)O2 (stereo not drawn) [Compound 2.470]	good or very good	≥ 85%	≥ 85%	EC50 [5, 7]: < 100 nM; pest or weed control at 1000 g/ha (SETFA (Setaria faberi)): ≥ 85%
Cc1n[nH]c2c1C(c1cc(C#N)cc(C#N)c1)(C1(F)CCC1)C(C#N)=C(N)O2 (stereo not drawn) [Compound 2.569]	good or very good	≥ 85%	≥ 85%	EC50 [5, 7]: < 100 nM; pest or weed control at 1000 g/ha [4]: ≥ 85%

SMILES	herbicidal activity against at least three of the weeds SETFA, AMARE, POLCO, CHEAL, GALAP [1]	pest or weed control at 1000 g/ha [2]	pest or weed control at 1000 g/ha [3]	also measured
CCC(=O)N(C)c1cc(C#N)cc(C2(C3CCC3)C(C#N)=C(N)Oc3[nH]nc(C)c32)c1 (stereo not drawn) [Compound 2.611]	good or very good	≥ 85%	≥ 85%	EC50 [5, 7]: < 10 nM; pest or weed control at 1000 g/ha [4]: ≥ 85%
CCCC(=O)N(C)c1cc(C#N)cc(C2(C3CCC3)C(C#N)=C(N)Oc3[nH]nc(C)c32)c1 (stereo not drawn) [Compound 2.612]	good or very good	–	–	EC50 [5, 7]: < 10 nM
COCC(=O)N(C)c1cc(C#N)cc(C2(C3CCC3)C(C#N)=C(N)Oc3[nH]nc(C)c32)c1 (stereo not drawn) [Compound 2.615]	good or very good	≥ 85%	≥ 85%	EC50 [5, 7]: < 10 nM; pest or weed control at 1000 g/ha [4]: ≥ 85%
COCCOCC(=O)N(C)c1cc(C#N)cc(C2(C3CCC3)C(C#N)=C(N)Oc3[nH]nc(C)c32)c1 (stereo not drawn) [Compound 2.616]	good or very good	≥ 85%	≥ 85%	EC50 [5, 7]: < 10 nM
Cc1n[nH]c2c1C(c1cc(C#N)cc(N(C)S(C)(=O)=O)c1)(C1CCC1)C(C#N)=C(N)O2 (stereo not drawn) [Compound 2.617]	good or very good	≥ 85%	≥ 85%	EC50 [5, 7]: < 10 nM
Cc1n[nH]c2c1C(c1cc(C#N)cc(N(C)C(=O)CC#N)c1)(C1CCC1)C(C#N)=C(N)O2 (stereo not drawn) [Compound 2.635]	good or very good	≥ 85%	≥ 85%	EC50 [5, 7]: < 10 nM
Cc1n[nH]c2c1C(c1cc(C#N)cc(N(C)C(=O)CC#N)c1)(C(C)C)C(C#N)=C(N)O2 (stereo not drawn) [Compound 2.662]	good or very good	≥ 85%	≥ 85%	EC50 [5, 8]: < 10 nM; pest or weed control at 1000 g/ha (SETFA (Setaria faberi)): ≥ 85%
Cc1n[nH]c2c1C(c1cc(C#N)cc(N(C)C(=O)CCC#N)c1)(C(C)C)C(C#N)=C(N)O2 (stereo not drawn) [Compound 2.663]	good or very good	≥ 85%	≥ 70%	EC50 [5, 8]: < 10 nM; pest or weed control at 1000 g/ha (SETFA (Setaria faberi)): ≥ 85%
CCC1(c2ccc3[nH]c(=O)oc3c2)C(C#N)=C(N)Oc2[nH]nc(C)c21 (stereo not drawn) [Compound 4.72]	–	–	–	EC50 [5, 9]: < 1000 nM
Cc1n[nH]c2c1C(c1ccc(Cl)s1)(C1CC1)C(C#N)=C(N)O2 (stereo not drawn) [Compound 4.74]	–	–	–	EC50 [5, 9]: < 1000 nM
CCC1(CCc2ccccc2)C(C#N)=C(N)Oc2[nH]nc(C)c21 (stereo not drawn) [Compound 4.76]	–	–	–	EC50 [5, 9]: < 1000 nM
COc1ccc2cc(C3(C4CCC4)C(C#N)=C(N)Oc4[nH]nc(CO)c43)ccc2c1 (stereo not drawn) [Compound 4.77]	–	–	–	EC50 [5, 9]: < 1000 nM
CCc1n[nH]c2c1C(c1ccc(Cl)s1)(C1CC1)C(C#N)=C(N)O2 (stereo not drawn) [Compound 4.78]	–	–	–	EC50 [5, 9]: < 10000 nM
CCC1(c2cc(C)co2)C(C#N)=C(N)Oc2[nH]nc(C)c21 (stereo not drawn) [Compound 4.79]	–	–	–	EC50 [5, 9]: < 10000 nM
Cc1n[nH]c2c1C(c1ccc(C(=O)O)s1)(C1CCC1)C(C#N)=C(N)O2 (stereo not drawn) [Compound 4.80]	–	–	–	EC50 [5, 9]: < 10000 nM
Cc1n[nH]c2c1C(c1cc(-c3ccccc3)cs1)(C(C)C)C(C#N)=C(N)O2 (stereo not drawn) [Compound 4.81]	–	–	–	EC50 [5, 9]: < 10000 nM
N#CC1=C(N)Oc2[nH]nc(C(F)F)c2C1(c1ccc(Cl)s1)C1CC1 (stereo not drawn) [Compound 4.83]	–	–	–	EC50 [5, 9]: < 10000 nM
